This experiment addresses T1, kappa-opioid receptor (KOP) (Homo sapiens, UniProt P41145).
T1 construct: gene OPRK1
Kind of experiment: FLIM in live cells: blocks the dynorphin A-induced change of KOP-eGFP lifetime. The format is cell-based.

Molecules are shown by their SMILES.

T1 sequence (P41145 whole entry): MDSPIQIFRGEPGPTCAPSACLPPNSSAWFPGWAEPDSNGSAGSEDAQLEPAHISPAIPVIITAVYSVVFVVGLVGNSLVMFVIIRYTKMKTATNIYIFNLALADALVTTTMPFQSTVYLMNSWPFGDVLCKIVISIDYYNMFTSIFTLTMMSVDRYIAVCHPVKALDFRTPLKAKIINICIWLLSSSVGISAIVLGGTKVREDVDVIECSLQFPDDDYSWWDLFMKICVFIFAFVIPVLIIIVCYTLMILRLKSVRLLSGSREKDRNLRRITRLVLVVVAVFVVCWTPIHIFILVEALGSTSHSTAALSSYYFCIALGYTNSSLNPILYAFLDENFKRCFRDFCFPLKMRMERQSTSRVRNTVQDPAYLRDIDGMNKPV

Take `CC(C)[C@@H](CN1CC[C@@](C)(c2cccc(O)c2)[C@@H](C)C1)NC(=O)[C@H]1Cc2ccc(O)cc2CN1` [JDTic]: the “FLIM in live cells: blocks the dynorphin A-induced change of KOP-eGFP lifetime” value was “both NTX and the KOP-selective antagonist JDTic blocked this effect, suggesting that DynA binds to KOP-eGFP”.

The record behind these values is PMC11586411 (Translational Psychiatry, 2023).
